Where two headings read alike, the source gives them in different places. Numbered stars: 1 amine (or outer) side, 2 acyl side, 3 side chain; on linkers, the order of the positions; unused ones are H or OH. Bridge positions count the residues as written; N and C are the ends. Square brackets hold non-standard residues; d marks the D form. Peptide text beside a SMILES is read from it. * marks the point of attachment. TtdsdLys(DOTA)NH2 = NC(=O)[C@@H](CCCCNC(=O)CN1CCN(CC(=O)O)CCN(CC(=O)O)CCN(CC(=O)O)CC1)NC(=O)CCC(=O)NCCCOCCOCCOCCCN*; X7 = O=C(O)CN1CCN(CC(=O)O)CCN(CC(=O)NC2CCN(CC(=O)*)CC2)CCN(CC(=O)O)CC1; X3 = O=C(O)CN1CCN(CC(=O)O)CCN(CC(=O)NCCCOCCOCCOCCCN*)CCN(CC(=O)O)CC1; X12 = O=C(O)CN1CCOCCN(CC(=O)O)CCN(CC(=O)*)CCOCCN(CC(=O)O)CC1; DOTA = O=C(O)CN1CCN(CC(=O)O)CCN(CC(=O)*)CCN(CC(=O)O)CC1; Phe(4-Cl) = N[C@@H](Cc1ccc(Cl)cc1)C(=O)O; Phe(4-NH2) = Nc1ccc(C[C@H](N)C(=O)O)cc1; Arg(Me) = CNC(=N)NCCC[C@H](N)C(=O)O; Ethylenediamine = C(CN[*:2])N[*:1]; 2Pal = N[C@@H](Cc1ccccn1)C(=O)O; X1 = O=C(CC1CCN([*:1])CC1)[*:2]; Lys(Me) = CNCCCC[C@H](N)C(=O)O; NMeK = CN[C@@H](CCCCN)C(=O)O; Suc = O=C(CCC(=O)[*:2])[*:1]; Tle = CC(C)(C)[C@H](N)C(=O)O; Isovaleryl = CC(C)CC(=O)*; Nle = CCCC[C@H](N)C(=O)O; Hexanoyl = CCCCCC(=O)*; Aib = CC(C)(N)C(=O)O; CH2 = C([*:1])[*:2]
Assays:
[1] = target: T1, Fc-fusion protein of human PSMA (hPSMA-Fc) (Homo sapiens, UniProt Q04609); experiment: Surface plasmon resonance assay (Biacore T200, single cycle kinetic); assay type: binding; details: for Kd: read-out: pKD CAT (converted)
T1 construct: purchased Acro Biosystems PSA-H5264
T1 sequence (Q04609 44-750 limits assumed): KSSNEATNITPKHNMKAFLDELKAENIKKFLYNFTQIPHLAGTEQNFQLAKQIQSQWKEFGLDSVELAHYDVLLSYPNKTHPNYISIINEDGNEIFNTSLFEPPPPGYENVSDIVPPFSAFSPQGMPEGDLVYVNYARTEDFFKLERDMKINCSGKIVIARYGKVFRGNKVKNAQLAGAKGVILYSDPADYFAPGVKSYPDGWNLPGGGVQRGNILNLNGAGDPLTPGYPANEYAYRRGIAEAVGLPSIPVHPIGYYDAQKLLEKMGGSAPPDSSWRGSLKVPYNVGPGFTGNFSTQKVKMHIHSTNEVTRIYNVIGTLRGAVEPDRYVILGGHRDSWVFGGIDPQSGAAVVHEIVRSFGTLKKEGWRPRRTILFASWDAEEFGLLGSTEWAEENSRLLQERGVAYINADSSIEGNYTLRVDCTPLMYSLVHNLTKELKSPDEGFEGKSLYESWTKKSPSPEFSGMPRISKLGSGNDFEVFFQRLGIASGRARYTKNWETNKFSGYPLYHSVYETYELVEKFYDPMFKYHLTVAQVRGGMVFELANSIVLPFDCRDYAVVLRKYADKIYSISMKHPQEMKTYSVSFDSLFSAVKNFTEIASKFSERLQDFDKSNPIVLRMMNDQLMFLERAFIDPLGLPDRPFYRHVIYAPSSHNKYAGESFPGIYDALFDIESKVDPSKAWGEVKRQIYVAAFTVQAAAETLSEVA
How it was run: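 hPSMA-Fc was captured (~1000 RU) on an Fc-binding-peptide CM5 chip, and compounds were run in single cycle kinetic mode at 25° C in HBST with 0.1% DMSO. Double-blank-corrected sensorgrams were fitted to a 1:1 Langmuir model to give KD, reported as pKD.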

[2] = target: T2, PSMA-expressing C4-2 cells (Homo sapiens, UniProt Q04609); experiment: FACS binding assay (competition with 50 nM PSM-0183); details: for IC50: read-out: pIC50 [C4-2] CAT (converted)
T2 construct: PSMA-expressing C4-2 cells (ATCC, Cat. No. CRL-3314) were cultured in RPMI-1640; host or cells: C4-2 cells
T2 sequence (Q04609 whole entry): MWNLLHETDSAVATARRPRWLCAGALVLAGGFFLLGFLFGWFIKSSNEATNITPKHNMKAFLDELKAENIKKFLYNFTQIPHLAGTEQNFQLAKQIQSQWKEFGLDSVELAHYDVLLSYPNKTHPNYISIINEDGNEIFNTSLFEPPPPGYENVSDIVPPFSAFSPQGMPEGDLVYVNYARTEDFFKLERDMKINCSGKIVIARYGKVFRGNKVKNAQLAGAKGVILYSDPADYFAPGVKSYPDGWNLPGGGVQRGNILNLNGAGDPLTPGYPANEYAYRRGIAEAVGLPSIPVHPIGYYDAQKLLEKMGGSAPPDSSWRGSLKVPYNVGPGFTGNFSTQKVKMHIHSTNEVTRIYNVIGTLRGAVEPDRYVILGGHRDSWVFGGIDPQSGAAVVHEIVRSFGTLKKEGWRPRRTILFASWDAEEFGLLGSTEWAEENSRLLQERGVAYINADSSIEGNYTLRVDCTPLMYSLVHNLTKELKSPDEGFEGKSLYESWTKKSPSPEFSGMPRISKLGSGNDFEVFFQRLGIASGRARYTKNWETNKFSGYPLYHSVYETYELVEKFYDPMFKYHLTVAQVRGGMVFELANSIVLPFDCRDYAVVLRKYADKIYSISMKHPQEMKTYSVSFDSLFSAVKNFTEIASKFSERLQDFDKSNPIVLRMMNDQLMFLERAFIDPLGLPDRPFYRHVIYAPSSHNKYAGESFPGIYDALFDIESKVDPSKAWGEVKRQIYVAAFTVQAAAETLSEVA
How it was run: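 C4-2 cells were incubated 1 h at 4 °C with 50 nM AF488-labelled peptide PSM-0183 plus increasing test compound concentrations, then washed twice in ice-cold buffer. Median fluorescence in the AF488 channel was read by flow cytometry. IC50/pIC50 was derived by 4PL fitting of MFI versus concentration.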

[3] = pKD category for PSMA SPR activity assay, hPSMA-Fc, 25° C.
[4] = pIC50 category of FACS binding, C4-2 cells
[5] = FACS binding, C4-2 cells, category
[6] = PSMA SPR assay, hPSMA-Fc, 25° C., pKD category
[7] = FACS binding, PSMA-expressing C4-2 cells, pIC50 category
[8] = SPR, hPSMA-Fc, single cycle kinetic, 25° C., category
[9] = FACS binding, C4-2 cells, competition with 50 nM PSM-0183, category

CC(=O)N[C@H](C(=O)NC(C)(C)C(=O)N[C@@H](Cc1ccccc1)C(=O)N[C@H]1CSSC[C@@H](C(=O)N[C@H](C(=O)N[C@H](C(N)=O)[C@@H](C)O)C(C)(C)C)NC(=O)[C@H](CC(N)=O)NC(=O)C(C)(C)NC(=O)[C@H](CCCNC(=N)N)NC(=O)[C@H](CCCCN)N(C)C1=O)[C@@H](C)O [PSM-0451, Ac-Thr-Aib-Phe-[Cys-Nmk-Arg-Aib-Asn-Cys]-Tle-Thr-NH2] (Ac-T[Aib]FC[NMeK]R[Aib]NC[Tle]T-NH2; disulfide 4-9)
Kd [1, 3]: 0.0126 to 0.126 µM | IC50 [2, 4]: 0.2 to 1.26 µM

CCCCCC(=O)N[C@H](C(=O)NC(C)(C)C(=O)N[C@@H](Cc1ccccc1)C(=O)N[C@H]1CSSC[C@@H](C(=O)N[C@H](C(=O)N[C@H](C(=O)NCCCOCCOCCOCCCNC(=O)CCC(=O)N[C@H](CCCCNC(=O)CN2CCN(CC(=O)O)CCN(CC(=O)O)CCN(CC(=O)O)CC2)C(N)=O)[C@@H](C)O)C(C)(C)C)NC(=O)[C@H](CC(N)=O)NC(=O)C(C)(C)NC(=O)[C@H](CCCNC(=N)N)NC(=O)[C@H](CCCCN)NC1=O)[C@@H](C)O [PSM-0576, Hex-Thr-Aib-Phe-[Cys-Lys-Arg-Aib-Asn-Cys]-Tle-Thr-Ttds-lys(DOTA)-NH2] (Hexanoyl-T[Aib]FCKR[Aib]NC[Tle]T-{TtdsdLys(DOTA)NH2}; disulfide 4-9)
Kd ([1]; PSMA SPR assay, category): < 0.0126 µM | IC50 [2, 5]: < 0.2 µM

CC(=O)N[C@H](C(=O)NC(C)(C)C(=O)N[C@@H](Cc1ccccc1)C(=O)N[C@H]1CSCSC[C@@H](C(=O)N[C@H](C(=O)N[C@H](C(=O)N[C@@H](CC(=O)O)C(N)=O)[C@@H](C)O)C(C)(C)C)NC(=O)[C@H](CC(N)=O)NC(=O)[C@H](C)NC(=O)[C@H](CCCNC(=N)N)NC(=O)[C@H](CCCCN)NC1=O)[C@@H](C)O [PSM-0567, Ac-Thr-Aib-Phe-[Smc-Lys-Arg-Ala-Asn-Cys]-Tle-Thr-Asp-NH2] (Ac-T[Aib]FCKRANC[Tle]TD-NH2; linker 4-9 via CH2)
Kd ([1]; PSMA SPR assay, category): < 0.0126 µM | IC50 [2, 5]: < 0.2 µM

CNCCCC[C@@H]1NC(=O)[C@@H](NC(=O)[C@H](Cc2ccccc2)NC(=O)C(C)(C)NC(=O)[C@@H](NC(=O)CC2CCN(C(=O)CN3CCN(CC(=O)O)CCN(CC(=O)O)CCN(CC(=O)O)CC3)CC2)[C@@H](C)O)CSSC[C@@H](C(=O)N[C@H](C(=O)NCCN)C(C)(C)C)NC(=O)[C@H](CC(N)=O)NC(=O)C(C)(C)NC(=O)[C@H](CCCNC(=N)NC)NC1=O [PSM-605] ({DOTA}-[X1]T[Aib]FC[Lys(Me)][Arg(Me)][Aib]NC[Tle]-Ethylenediamine; disulfide 5-10)
Kd ([1]; PSMA SPR assay, category): < 0.0126 µM | IC50 [2, 5]: < 0.2 µM

CC(C)CC(=O)NC(C)(C)C(=O)N[C@@H](Cc1ccc(Cl)cc1)C(=O)N[C@H]1CSSC[C@@H](C(=O)N[C@H](C(=O)N[C@H](C(N)=O)[C@@H](C)O)C(C)(C)C)NC(=O)[C@H](CC(N)=O)NC(=O)[C@H](CCCCNC(=O)CN2CCC(NC(=O)CN3CCN(CC(=O)O)CCN(CC(=O)O)CCN(CC(=O)O)CC3)CC2)NC(=O)[C@H](CCCNC(=N)N)NC(=O)[C@H](CCCCN)NC1=O [PSM-0353, Iva-Aib-Pcf-[Cys-Lys-Arg-Lys(DOTA-APAc)-Asn-Cys]-Tle-Thr-NH2] (Isovaleryl-[Aib][Phe(4-Cl)]CKRK(X7)NC[Tle]T-NH2; disulfide 3-8)
Kd [1, 6]: < 0.0126 µM | IC50 [2, 7]: < 0.2 µM

CC(=O)N[C@H](C(=O)NC(C)(C)C(=O)N[C@@H](Cc1ccc(Cl)cc1)C(=O)N[C@H]1CSSC[C@@H](C(=O)N[C@H](C(=O)N[C@H](C(N)=O)[C@@H](C)O)C(C)(C)C)NC(=O)[C@H](CC(N)=O)NC(=O)C(C)(C)NC(=O)[C@H](CCCNC(=N)N)NC(=O)[C@H](CCCCN)NC1=O)[C@@H](C)O [PSM-0336, Ac-Thr-Aib-Pcf-[Cys-Lys-Arg-Aib-Asn-Cys]-Tle-Thr-NH2] (Ac-T[Aib][Phe(4-Cl)]CKR[Aib]NC[Tle]T-NH2; disulfide 4-9)
Kd [1, 6]: < 0.0126 µM | IC50 [2, 7]: < 0.2 µM

CC(=O)N[C@H](C(=O)NC(C)(C)C(=O)N[C@@H](Cc1ccccc1)C(=O)N[C@H]1CSSC[C@@H](C(=O)N[C@H](C(=O)N[C@H](C(=O)N[C@@H](CC(=O)O)C(N)=O)[C@@H](C)O)C(C)(C)C)NC(=O)[C@H](CC(N)=O)NC(=O)C(C)(C)NC(=O)[C@H](CCC(=O)O)NC(=O)[C@H](CCCCN)NC1=O)[C@@H](C)O [PSM-0253, Ac-Thr-Aib-Phe-[Cys-Lys-Glu-Aib-Asn-Cys]-Tle-Thr-Asp-NH2] (Ac-T[Aib]FCKE[Aib]NC[Tle]TD-NH2; disulfide 4-9)
Kd [1, 8]: 0.126 to 0.501 µM | IC50 [2, 9]: 0.2 to 1.26 µM

CC(=O)N[C@H](C(=O)NC(C)(C)C(=O)N[C@@H](Cc1ccccc1)C(=O)N[C@H]1CSSC[C@@H](C(=O)N[C@H](C(=O)N[C@H](C(=O)N[C@@H](CC(=O)O)C(N)=O)[C@@H](C)O)C(C)(C)C)NC(=O)[C@H](CC(N)=O)NC(=O)[C@H](C)NC(=O)[C@H](CCCNC(=N)N)NC(=O)[C@H](Cc2ccc(N)cc2)NC1=O)[C@@H](C)O [PSM-0439, Ac-Thr-Aib-Phe-[Cys-Aph-Arg-Ala-Asn-Cys]-Tle-Thr-Asp-NH2] (Ac-T[Aib]FC[Phe(4-NH2)]RANC[Tle]TD-NH2; disulfide 4-9)
Kd [1, 3]: 0.126 to 0.501 µM | IC50 [2, 4]: < 0.2 µM

C[C@@H]1NC(=O)[C@H](CCCNC(=N)N)NC(=O)[C@H](CCCCN)NC(=O)[C@@H](NC(=O)[C@H](Cc2ccccc2)NC(=O)[C@H](C)NC(=O)[C@@H](NC(=O)CCC(=O)NCCCOCCOCCOCCCNC(=O)CN2CCN(CC(=O)O)CCN(CC(=O)O)CCN(CC(=O)O)CC2)[C@@H](C)O)CSSC[C@@H](C(N)=O)NC(=O)[C@H](CC(N)=O)NC1=O [PSM-0201, DOTA-Ttds-Thr-Ala-Phe-[Cys-Lys-Arg-Ala-Asn-Cys]-NH2] ({X3-Suc}-TAFCKRANC-NH2; disulfide 4-9)
Kd [1, 8]: > 0.501 µM | IC50 [2, 9]: > 3.16 µM

CCCC[C@@H]1NC(=O)[C@@H](NC(=O)[C@H](Cc2ccc(Cl)cc2)NC(=O)C(C)(C)NC(=O)[C@@H](NC(C)=O)[C@@H](C)O)CSSC[C@@H](C(=O)N[C@H](C(=O)N[C@H](C(N)=O)[C@@H](C)O)C(C)(C)C)NC(=O)[C@H](CC(N)=O)NC(=O)C(C)(C)NC(=O)[C@H](CCCNC(=N)NC(C)=O)NC1=O [PSM-0570, Ac-Thr-Aib-Pcf-[Cys-Nle-Arg(Ac)-Aib-Asn-Cys]-Tle-Thr-NH2] (Ac-T[Aib][Phe(4-Cl)]C[Nle]R(Ac)[Aib]NC[Tle]T-NH2; disulfide 4-9)
Kd ([1]; PSMA SPR assay, category): 0.0126 to 0.126 µM | IC50 [2, 5]: < 0.2 µM

InDOTA-Cmp-Thr-Aib-Phe-[Cys-Lys-Arg-Aib-Asn-Cys]-Tle-Thr-NH2 [PSM-0195]
pKD CAT [1, 8]: A (pKD values >7.9) | pIC50 [C4-2] CAT [2, 9]: A (pIC50 values >6.7)

CC(=O)N[C@H](C(=O)NC(C)(C)C(=O)N[C@@H](Cc1ccccc1)C(=O)N[C@H]1CSSC[C@@H](C(=O)N[C@H](C(=O)N[C@H](C(N)=O)[C@@H](C)O)C(C)(C)C)NC(=O)[C@H](CC(C)C)NC(=O)C(C)(C)NC(=O)[C@H](CCCNC(=N)N)NC(=O)[C@H](CCCCN)NC1=O)[C@@H](C)O [PSM-0545, Ac-Thr-Aib-Phe-[Cys-Lys-Arg-Aib-Leu-Cys]-Tle-Thr-NH2] (Ac-T[Aib]FCKR[Aib]LC[Tle]T-NH2; disulfide 4-9)
Kd [1, 3]: < 0.0126 µM | IC50 [2, 4]: < 0.2 µM

CNCCCC[C@@H]1NC(=O)[C@@H](NC(=O)[C@H](Cc2ccc(Cl)cc2)NC(=O)C(C)(C)NC(=O)[C@@H](NC(=O)CC2CCN(C(=O)CN3CCOCCN(CC(=O)O)CCN(CC(=O)O)CCOCCN(CC(=O)O)CC3)CC2)[C@@H](C)O)CSSC[C@@H](C(=O)N[C@H](C(=O)N[C@H](C(N)=O)[C@@H](C)O)C(C)(C)C)NC(=O)[C@H](CC(N)=O)NC(=O)C(C)(C)NC(=O)[C@H](CCCNC(=N)NC)NC1=O [PSM-0495, Crown-Cmp-Thr-Aib-Pcf-[Cys-Lys(Me)-Arg(Me)-Aib-Asn-Cys]-Tle-Thr-NH2] (X12-[X1]T[Aib][Phe(4-Cl)]C[Lys(Me)][Arg(Me)][Aib]NC[Tle]T-NH2; disulfide 5-10)
Kd [1, 3]: < 0.0126 µM | IC50 [2, 4]: < 0.2 µM

CNCCCC[C@@H]1NC(=O)[C@@H](NC(=O)[C@H](Cc2ccccn2)NC(=O)C(C)(C)NC(=O)[C@@H](NC(=O)CC2CCN(C(=O)CN3CCN(CC(=O)O)CCN(CC(=O)O)CCN(CC(=O)O)CC3)CC2)[C@@H](C)O)CSSC[C@@H](C(=O)N[C@H](C(N)=O)C(C)(C)C)NC(=O)[C@H](CC(N)=O)NC(=O)C(C)(C)NC(=O)[C@H](CCCNC(=N)NC)NC1=O [PSM-0409, DOTA-Cmp-Thr-Aib-Opa-[Cys-Lys(Me)-Arg(Me)-Aib-Asn-Cys]-Tle-NH2] ({DOTA}-[X1]T[Aib][2Pal]C[Lys(Me)][Arg(Me)][Aib]NC[Tle]-NH2; disulfide 5-10)
Kd [1, 3]: 0.126 to 0.501 µM | IC50 [2, 4]: 0.2 to 1.26 µM

— US20260083865A1, “PROSTATE SPECIFIC MEMBRANE ANTIGEN (PSMA) LIGANDS AND USE THEREOF” (priority 2022, published 2026)
